Patent US9598446B2, “Amino compounds for treatment of complement mediated disorders” (priority 2014, dated 2017)
Where two headings read alike, the source gives them in different places.

Molecular target: Human factor D (Homo sapiens (Human), UniProt P00746)
Assay: Human Factor D Assay
Type: biochemical
[1] = human factor D 80 nM, substrate Z-L-Lys-SBz1 and DTNB 100 μM each, pH 7.5, read-out: IC50

Sequence of Human factor D (P00746 26-253): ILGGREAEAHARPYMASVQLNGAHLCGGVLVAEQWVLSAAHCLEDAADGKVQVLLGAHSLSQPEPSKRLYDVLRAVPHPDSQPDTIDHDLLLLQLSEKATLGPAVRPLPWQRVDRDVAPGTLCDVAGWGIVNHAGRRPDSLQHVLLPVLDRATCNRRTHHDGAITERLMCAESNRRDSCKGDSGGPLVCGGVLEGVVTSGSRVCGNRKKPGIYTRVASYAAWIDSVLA
Method: Human factor D (purified from human serum, Complement Technology, Inc.) at 80 nM final concentration is incubated with test compound at various concentrations for 5 minutes at room temperature in 50 mM Tris, 1M NaCl, pH 7.5. A synthetic substrate Z-L-Lys-SBz1 and DTNB (Ellman's reagent) are added to final concentrations of 100 μM each. The increase in color is recorded at OD405 nm in a microplate in kinetic mode over 30 minutes with 30 second time points in a spectrofluorimeter. IC50 values are calculated by non-linear regression from the percentage of inhibition of complement factor D activity as a function of test compound concentration.

Row | SMILES | IC50 [nM] | IC50 [1] [nM]
1 | CC(=O)c1cn(CC(=O)N2C[C@H](F)C[C@H]2C(=O)NCc2cccc(Cl)c2F)c2cc(N(CC(=O)N3C[C@H](F)C[C@H]3C(=O)NCc3cccc(Cl)c3F)S(C)(=O)=O)ccc12 [Compound 1, (2S,4R)-1-(2-(N-(3-acetyl-1-(2-((2S,4R)-2-(3-chloro-2-fluorobenzyl-carbamoyl)-4-fluoropyrrolidin-1-yl)-2-oxoethyl)-1H-indol-6-yl)methylsulfonamido)acetyl)-N-(3-chloro-2-fluorobenzyl)-4-fluoropyrrolidine-2-carboxamide] | 1000 to 10000 | 
2 | CC(=O)c1cn(CC(=O)N2C[C@H](F)C[C@H]2C(=O)NCc2cccc(Cl)c2F)c2cc(NS(=O)(=O)C(F)(F)F)ccc12 [Compound 2, (2S,4R)-1-(2-(3-acetyl-6-(trifluoromethylsulfon-amido)-1H-indol-1-yl)acetyl)-N-(3-chloro-2-fluorobenzyl)-4-fluoropyrrolidine-2-carboxamide] |  | < 1000
3 | CC(=O)c1cn(CC(=O)N2C[C@H](F)C[C@H]2C(=O)Nc2cccc(-c3ccccc3Cl)c2F)c2ccc(Nc3cncnc3)cc12 [Compound 3, (2S,4R)-1-(2-(3-acetyl-5-(pyrimidin-5-ylamino)-1H-indol-1-yl)acetyl)-N-(2′-chloro-2-fluorobiphenyl-3-yl)-4-fluoropyrrolidine-2-carboxamide] |  | < 1000
4 | CC(=O)c1cn(CC(=O)N2C[C@H](F)C[C@H]2C(=O)Nc2cccc(Br)n2)c2ccc(Nc3cncnc3)cc12 [Compound 4, (2S,4R)-1-(2-(3-acetyl-5-(pyrimidin-5-ylamino)-1H-indol-1-yl)acetyl)-N-(6-bromopyridin-2-yl)-4-fluoropyrrolidine-2-carboxamide] |  | < 1000
5 | CC(=O)c1cn(CC(=O)N2C[C@H](F)C[C@H]2C(=O)Nc2cccc(Cl)n2)c2ccc(Nc3cncnc3)cc12 [Compound 6, (2S,4R)-1-(2-(3-acetyl-5-(pyrimidin-5-ylamino)-1H-indol-1-yl)acetyl)-N-(6-chloropyridin-2-yl)-4-fluoropyrrolidine-2-carboxamide] |  | < 1000
6 | CC(=O)c1cn(CC(=O)N2C[C@H](F)C[C@H]2C(=O)N[C@H](CO)c2cccc(Cl)c2F)c2ccc(Nc3cncnc3)cc12 [Compound 7, (2S,4R)-1-(2-(3-acetyl-5-(pyrimidin-5-ylamino)-1H-indol-1-yl)acetyl)-N-((S)-1-(3-chloro-2-fluorophenyl)-2-hydroxyethyl)-4-fluoropyrrolidine-2-carboxamide] |  | < 1000
7 | CC(=O)c1cn(CC(=O)N2C[C@H](F)C[C@H]2C(=O)N[C@@H](CO)c2cccc(Cl)c2F)c2ccc(Nc3cncnc3)cc12 [Compound 8, (2S,4R)-1-(2-(3-acetyl-5-(pyrimidin-5-ylamino)-1H-indol-1-yl)acetyl)-N-((R)-1-(3-chloro-2-fluorophenyl)-2-hydroxyethyl)-4-fluoropyrrolidine-2-carboxamide] |  | < 1000
8 | NC(=O)c1nn(CC(=O)N2C[C@H](F)C[C@H]2C(=O)Nc2cccc(-c3ccccc3Cl)c2F)c2ccc(Nc3cccnn3)cc12 [Compound 9, 1-(2-((2S,4R)-2-(2′-chloro-2-fluorobiphenyl-3-ylcarbamoyl)-4-fluoropyrrolidin-1-yl)-2-oxoethyl)-5-(pyridazin-3-ylamino)-1H-indazole-3-carboxamide] |  | < 1000
9 | NC(=O)c1nn(CC(=O)N2C[C@H](F)C[C@H]2C(=O)Nc2cccc(-c3ccccc3Cl)c2F)c2ccc(Nc3cncnc3)cc12 [Compound 10, 1-(2-((2S,4R)-2-(2′-chloro-2-fluorobiphenyl-3-ylcarbamoyl)-4-fluoropyrrolidin-1-yl)-2-oxoethyl)-5-(pyrimidin-5-ylamino)-1H-indazole-3-carboxamide] |  | < 1000
10 | NC(=O)c1nn(CC(=O)N2C[C@H](F)C[C@H]2C(=O)Nc2cccc(Cl)n2)c2ccc(Nc3cccnn3)cc12 [Compound 11, 1-(2-((2S,4R)-2-(6-chloropyridin-2-ylcarbamoyl)-4-fluoropyrrolidin-1-yl)-2-oxoethyl)-5-(pyridazin-3-ylamino)-1H-indazole-3-carboxamide] |  | < 1000
11 | NC(=O)c1nn(CC(=O)N2C[C@H](F)C[C@H]2C(=O)Nc2cccc(Cl)n2)c2ccc(Nc3cncnc3)cc12 [Compound 12, 1-(2-((2S,4R)-2-(6-chloropyridin-2-ylcarbamoyl)-4-fluoropyrrolidin-1-yl)-2-oxoethyl)-5-(pyrimidin-5-ylamino)-1H-indazole-3-carboxamide] |  | < 1000
12 | N#Cc1cnc(Nc2ccc3c(c2)c(C(N)=O)nn3CC(=O)N2C[C@H](F)C[C@H]2C(=O)Nc2cccc(-c3ccccc3Cl)c2F)nc1 [Compound 13, 1-(2-((2S,4R)-2-(2′-chloro-2-fluorobiphenyl-3-ylcarbamoyl)-4-fluoropyrrolidin-1-yl)-2-oxoethyl)-5-(5-cyanopyrimidin-2-ylamino)-1H-indazole-3-carboxamide] |  | < 1000
13 | NC(=O)c1nn(CC(=O)N2C[C@H](F)C[C@H]2C(=O)Nc2cccc(-c3ccccc3Cl)c2F)c2ccc(Nc3cnc(C(F)(F)F)nc3)cc12 [Compound 14, 1-(2-((2S,4R)-2-(2′-chloro-2-fluorobiphenyl-3-ylcarbamoyl)-4-fluoropyrrolidin-1-yl)-2-oxoethyl)-5-(2-(trifluoromethyl)pyrimidin-5-ylamino)-1H-indazole-3-carboxamide] |  | < 1000
14 | CC(=O)c1cn(CC(=O)N2C[C@H](F)C[C@H]2C(=O)NCc2nc3ccccc3s2)c2ccc(Nc3cncnc3)cc12 [Compound 16, (2S,4R)-1-(2-(3-acetyl-5-(pyrimidin-5-ylamino)-1H-indol-yl)acetyl)-N-(benzo[d]thiazol-2-ylmethyl)-4-fluoropyrrolidine-2-carboxamide] | 1000 to 10000 | 
15 | CC(=O)c1cn(CC(=O)N2C[C@H](F)C[C@H]2C(=O)NCc2ccccn2)c2ccc(Nc3cncnc3)cc12 [Compound 17, (2S,4R)-1-(2-(3-acetyl-5-(pyrimidin-5-ylamino)-1H-indol-1-yl)acetyl)-4-fluoro-N-(pyridin-2-ylmethyl)pyrrolidine-2-carboxamide] |  | < 1000
16 | CC(=O)c1cn(CC(=O)N2C[C@H](F)C[C@H]2C(=O)NCc2cc(F)cc(Cl)c2)c2ccc(Nc3cncnc3)cc12 [Compound 18, (2S,4R)-1-(2-(3-acetyl-5-(pyrimidin-5-ylamino)-1H-indol-1-yl)acetyl)-N-(3-chloro-5-fluorobenzyl)-4-fluoropyrrolidine-2-carboxamide] |  | < 1000
17 | CC(=O)c1cn(CC(=O)N2C[C@H](F)C[C@H]2C(=O)NCc2cccc(Cl)c2)c2ccc(Nc3cncnc3)cc12 [Compound 19, (2S,4R)-1-(2-(3-acetyl-5-(pyrimidin-5-ylamino)-1H-indol-1-yl)acetyl)-N-(3-chlorobenzyl)-4-fluoropyrrolidine-2-carboxamide] |  | < 1000
18 | CNC(=O)[C@@H]1C[C@@H](F)CN1C(=O)Cn1cc(C(C)=O)c2cc(Nc3cncnc3)ccc21 [Compound 20, (2S,4R)-1-(2-(3-acetyl-5-(pyrimidin-5-ylamino)-1H-indol-1-yl)acetyl)-4-fluoro-N-methylpyrrolidine-2-carboxamide] | 1000 to 10000 | 
19 | CC(=O)c1cn(CC(=O)N2C[C@H](F)C[C@H]2C(=O)Nc2cncc(Br)c2)c2ccc(Nc3cncnc3)cc12 [Compound 21, (2S,4R)-1-(2-(3-acetyl-5-(pyrimidin-5-ylamino)-1H-indol-1-yl)acetyl)-N-(5-bromopyridin-3-yl)-4-fluoropyrrolidine-2-carboxamide] |  | < 1000
20 | CC(=O)c1cn(CC(=O)N2C[C@H](F)C[C@H]2C(=O)Nc2cncc(Cl)c2)c2ccc(Nc3cncnc3)cc12 [Compound 22, (2S,4R)-1-(2-(3-acetyl-5-(pyrimidin-5-ylamino)-1H-indol-1-yl)acetyl)-N-(5-chloropyridin-3-yl)-4-fluoropyrrolidine-2-carboxamide] |  | < 1000
21 | CCN1Cc2ccc(NC(=O)[C@@H]3C[C@@H](F)CN3C(=O)Cn3cc(C(C)=O)c4cc(Nc5cncnc5)ccc43)cc2C1=O [Compound 23, (2S,4R)-1-(2-(3-acetyl-5-(pyrimidin-5-ylamino)-1H-indol-1-yl)acetyl)-N-(2-ethyl-3-oxoisoindolin-5-yl)-4-fluoropyrrolidine-2-carboxamide] |  | < 1000
22 | CC(=O)c1cn(CC(=O)N2C[C@H](F)C[C@H]2C(=O)Nc2cccc3c2OC(C)(C)C3)c2ccc(Nc3cncnc3)cc12 [Compound 24, (2S,4R)-1-(2-(3-acetyl-5-(pyrimidin-5-ylamino)-1H-indol-1-yl)acetyl)-N-(2,2-dimethyl-2,3-dihydrobenzofuran-7-yl)-4-fluoropyrrolidine-2-carboxamide] |  | < 1000
23 | CC(=O)c1cn(CC(=O)N2C[C@H](F)C[C@H]2C(=O)Nc2ccc3cn[nH]c3c2)c2ccc(Nc3cncnc3)cc12 [Compound 25, (2S,4R)-1-(2-(3-acetyl-5-(pyrimidin-5-ylamino)-1H-indol-1-yl)acetyl)-4-fluoro-N-(1H-indazol-6-yl)pyrrolidine-2-carboxamide] |  | < 1000
24 | CC(=O)c1cn(CC(=O)N2C[C@H](F)C[C@H]2C(=O)Nc2ccc(F)c(-c3nnc4n3CCCCC4)c2)c2ccc(Nc3cncnc3)cc12 [Compound 26, (2S,4R)-1-(2-(3-acetyl-5-(pyrimidin-5-ylamino)-1H-indol-1-yl)acetyl)-4-fluoro-N-(4-fluoro-3-(6,7,8,9-tetrahydro-5H-[1,2,4]triazolo[4,3-a]azepin-3-yl)phenyl)pyrrolidine-2-carboxamide] |  | < 1000
25 | CC(=O)c1cn(CC(=O)N2C[C@H](F)C[C@H]2C(=O)NC2CCCc3nc(-c4ccc(F)cc4)sc32)c2ccc(Nc3cncnc3)cc12 (stereo partly drawn) [Compound 28, (2S,4R)-1-(2-(3-acetyl-5-(pyrimidin-5-ylamino)-1H-indol-1-yl)acetyl)-4-fluoro-N-(2-(4-fluorophenyl)-4,5,6,7-tetrahydrobenzo[d]thiazol-7-yl)pyrrolidine-2-carboxamide] |  | > 10000
26 | CC(=O)c1cn(CC(=O)N2C[C@H](F)C[C@H]2C(=O)Nc2nc(-c3ccccc3Cl)ns2)c2ccc(Nc3cncnc3)cc12 [Compound 29, (2S,4R)-1-(2-(3-acetyl-5-(pyrimidin-5-ylamino)-1H-indol-1-yl)acetyl)-N-(3-(2-chlorophenyl)-1,2,4-thiadiazol-5-yl)-4-fluoropyrrolidine-2-carboxamide] |  | < 1000
